Results from patent publication US5462935A, “Cephalosporin compounds” (Lucky Limited, priority 1990, dated 1995).
Converted amounts (≈) assume the structure as drawn.

Assays:
[1] = acute toxicity test, intravenous; settings: mouse, in vivo, ICR mice, observed for 14 days
Description: The results are shown in the last row of Table 2.

[2] = system: Enterobacter cloacae ATCC 27508; test: minimal inhibitory concentration, two-fold agar dilution; assay type: cell-based; settings: ATCC27508, Muller-Hinton agar, 37° C., 20 hours
Method: (§1) These NIC values were taken by employing a two-fold dilution method: that is, two-fold serial dilutions of each of the test compounds were made and dispersed in a Muller-Hinton agar medium; 2 μl of the standard test strain which had the 10^7 CFU (Colony Forming Unit) per ml was inoculated on the medium; and these were incubated at 37° C. for 20 hours.

[3] = system: Staphylococcus aureus ATCC 6638p; test: as above; assay type: cell-based; settings: ATCC6638P, 20 h
Method: as §1

[4] = system: Escherichia coli ATCC 10536; test: as above; assay type: cell-based; settings: ATCC10536, Muller-Hinton agar, 37° C., 20 hours
Method: as §1

[5] = system: Citrobacter freundii ATCC 8090; test: as above; assay type: cell-based; settings: ATCC8090, Muller-Hinton agar, 37° C., 20 hours
Method: as §1

[6] = system: Shigella flexneri ATCC 11836; test: as above; assay type: cell-based; settings: ATCC11836, Muller-Hinton agar, 37° C., 20 hours
Method: as §1

[7] = system: Proteus mirabilis ATCC 25933; test: as above; assay type: cell-based; settings: ATCC25933, Muller-Hinton agar, 37° C., 20 hours
Method: as §1

[8] = system: Proteus vulgaris ATCC 6059; test: as above; assay type: cell-based; settings: ATCC6059, Muller-Hinton agar, 37° C., 20 hours
Method: as §1

[9] = system: Providencia rettgeri ATCC 9250; test: as above; assay type: cell-based; settings: ATCC9250, Muller-Hinton agar, 37° C., 20 hours
Method: as §1

[10] = system: Klebsiella pneumoniae ATCC 10031; test: as above; assay type: cell-based; settings: ATCC10031, Muller-Hinton agar, 37° C., 20 hours
Method: as §1

[11] = system: Pseudomonas aeruginosa ATCC 25619; test: as above; assay type: cell-based; settings: ATCC25619, Muller-Hinton agar, 37° C., 20 hours
Method: as §1

[12] = system: Micrococcus luteus ATCC 9341; test: as above; assay type: cell-based; settings: ATCC9341, Muller-Hinton agar, 37° C., 20 hours
Method: as §1

[13] = system: Shigella sonnei ATCC 11060; test: as above; assay type: cell-based; settings: ATCC11060, Muller-Hinton agar, 37° C., 20 hours
Method: as §1

[14] = system: Pseudomonas aerugionsa ATCC 10145; test: as above; assay type: cell-based; settings: ATCC10145, Muller-Hinton agar, 37° C., 20 hours
Method: as §1

[15] = system: Pseudomonas aerugionsa ATCC 27853; test: as above; assay type: cell-based; settings: ATCC27853, Muller-Hinton agar, 37° C., 20 hours
Method: as §1

[16] = system: Bacillus cereus ATCC 11778; test: as above; assay type: cell-based; settings: Bacillus cereus, ATCC11778, 20 h
Method: as §1

[17] = system: Serratia marcescens ATCC 27117; test: as above; assay type: cell-based; settings: ATCC27117, Muller-Hinton agar, 37° C., 20 hours
Method: as §1

ATCC 12228 = test: as above; assay type: cell-based; settings: Staphylococcus faecalis, ATCC12228, 20 h
Method: as §1

[18] = system: Staphylococcus epidermidis ATCC 10537; test: as above; assay type: cell-based; settings: ATCC10537, Muller-Hinton agar, 37° C., 20 hours
Method: as §1

[19] = system: Morganella morganii ATCC 8076h; test: as above; assay type: cell-based; settings: ATCC8076H, 20 h
Method: as §1

[20] = system: Salmonella typhimurium ATCC 14028; test: as above; assay type: cell-based; settings: Salmonella enterica, Muller-Hinton agar, 37° C., 20 hours
Method: as §1

[21] = system: Acinetobacter calcoaceticus ATCC 15473; test: as above; assay type: cell-based; settings: ATCC15473, Muller-Hinton agar, 37° C., 20 hours
Method: as §1

[22] = system: Escherichia coli ATCC 25922; test: as above; assay type: cell-based; settings: ATCC25922, Muller-Hinton agar, 37° C., 20 hours
Method: as §1

[23] = system: Enterobacter aerogenes ATCC 29751; test: as above; assay type: cell-based; settings: Klebsiella aerogenes, ATCC29751, 20 h
Method: as §1

[24] = system: Bacillus megaterium ATCC 9885; test: as above; assay type: cell-based; settings: Priestia megaterium, ATCC9885, 20 h
Method: as §1

[25] = system: Streptococcus faecalis ATCC 29212; test: as above; assay type: cell-based; settings: Enterococcus faecalis, ATCC29212, Muller-Hinton agar, 37° C., 20 hours
Method: as §1

Row | Compound | LD50 at 336 h [1] | MIC [2] | MIC [3] | MIC [4] | MIC [5] | MIC [6] | MIC [7] | MIC [8] | MIC [9] | MIC [10] | MIC [11] | MIC [12] | MIC [13] | MIC [14] | MIC [15] | MIC [16] | MIC [17] | MIC (ATCC 12228) | MIC [18] | MIC [19] | also measured
1 | C[C@@H](O/N=C(\C(=O)NC1C(=O)N2C(C(=O)[O-])=C(CSc3nc(N)cc(N)[n+]3-c3ccccc3)CSC12)c1csc(N)n1)C(=O)O (stereo partly drawn) [I-R-5, 7-[(Z)-2-(2-aminothiazol-4-yl)-2-[(R)-1-carboxyeth-1-oxyimino]acetamido]-3-[(4,6-diamino-1'-phenylpyrimidinium-2-yl)thiomethyl]-3-cephem-4-carboxylate] | > 2000 mg/kg | 0.031 µg/mL (≈ 0.0461 µM) | 4 µg/mL (≈ 5.95 µM) | 0.13 µg/mL (≈ 0.194 µM) | 0.13 µg/mL (≈ 0.194 µM) | 0.063 µg/mL (≈ 0.0938 µM) | 0.063 µg/mL (≈ 0.0938 µM) | 0.063 µg/mL (≈ 0.0938 µM) | ≤ 0.008 µg/mL | 0.063 µg/mL (≈ 0.0938 µM) | 2 µg/mL (≈ 2.98 µM) | 0.25 µg/mL (≈ 0.372 µM) | 0.25 µg/mL (≈ 0.372 µM) | 8 µg/mL (≈ 11.9 µM) | 4 µg/mL (≈ 5.95 µM) | 64 µg/mL (≈ 95.3 µM) | 0.5 µg/mL (≈ 0.744 µM) | 2 µg/mL (≈ 2.98 µM) | 2 µg/mL (≈ 2.98 µM) | ≤ 0.008 µg/mL | MIC [20]: 0.5 µg/mL (≈ 0.744 µM); MIC [21]: 16 µg/mL (≈ 23.8 µM); MIC [22]: 0.25 µg/mL (≈ 0.372 µM); MIC [23]: 1 µg/mL (≈ 1.49 µM); MIC [24]: 0.5 µg/mL (≈ 0.744 µM); MIC [25]: > 128 µg/mL
2 | C[C@H](O/N=C(\C(=O)NC1C(=O)N2C(C(=O)[O-])=C(CSc3nc(N)cc(N)[n+]3-c3ccccc3)CS[C@H]12)c1csc(N)n1)C(=O)O (stereo partly drawn) [I-S-5, 7-[(Z)-2-(2-aminothiazol-4-yl)-2-[(S)-1-carboxyeth-1-oxyimino]acetamido]-3-[(4,6-diamino-1-phenylpyrimidinium-2-yl)thiomethyl]-3-cephem-4-carboxylate] | > 2000 mg/kg | 0.031 µg/mL (≈ 0.0461 µM) | 4 µg/mL (≈ 5.95 µM) | 0.25 µg/mL (≈ 0.372 µM) | 0.13 µg/mL (≈ 0.194 µM) | 0.13 µg/mL (≈ 0.194 µM) | 0.13 µg/mL (≈ 0.194 µM) | 0.063 µg/mL (≈ 0.0938 µM) | ≤ 0.008 µg/mL | 0.13 µg/mL (≈ 0.194 µM) | 2 µg/mL (≈ 2.98 µM) | 0.25 µg/mL (≈ 0.372 µM) | 0.25 µg/mL (≈ 0.372 µM) | 8 µg/mL (≈ 11.9 µM) | 4 µg/mL (≈ 5.95 µM) | 32 µg/mL (≈ 47.6 µM) | 0.5 µg/mL (≈ 0.744 µM) | 2 µg/mL (≈ 2.98 µM) | 4 µg/mL (≈ 5.95 µM) | ≤ 0.008 µg/mL | MIC [20]: 0.5 µg/mL (≈ 0.744 µM); MIC [21]: 16 µg/mL (≈ 23.8 µM); MIC [22]: 0.25 µg/mL (≈ 0.372 µM); MIC [23]: 2 µg/mL (≈ 2.98 µM); MIC [24]: 0.25 µg/mL (≈ 0.372 µM); MIC [25]: > 128 µg/mL
3 | CCC[n+]1c(N)cc(N)nc1SCC1=C(C(=O)[O-])N2C(=O)C(NC(=O)/C(=N\O[C@@H](C)C(=O)O)c3csc(N)n3)[C@H]2SC1 (stereo partly drawn) [I-S-4, 7-[(Z)-2-(2-aminothiazol-4-yl)-2-[(S)-1-carboxyeth-1-oxyimino]acetamido]-3-[(4,6-diamino-1-propylpyrimidinium-2-yl)thiomethyl]-3-cephem-4-carboxylate] | > 3000 mg/kg | ≤ 0.008 µg/mL | 2 µg/mL (≈ 3.14 µM) | 0.031 µg/mL (≈ 0.0486 µM) | 0.031 µg/mL (≈ 0.0486 µM) | 0.031 µg/mL (≈ 0.0486 µM) | 0.031 µg/mL (≈ 0.0486 µM) | 0.031 µg/mL (≈ 0.0486 µM) | ≤ 0.008 µg/mL | 0.031 µg/mL (≈ 0.0486 µM) | 1 µg/mL (≈ 1.57 µM) | 0.13 µg/mL (≈ 0.204 µM) | 0.063 µg/mL (≈ 0.0988 µM) | 2 µg/mL (≈ 3.14 µM) | 1 µg/mL (≈ 1.57 µM) | 32 µg/mL (≈ 50.2 µM) | 0.13 µg/mL (≈ 0.204 µM) | 1 µg/mL (≈ 1.57 µM) | 1 µg/mL (≈ 1.57 µM) | ≤ 0.008 µg/mL | MIC [20]: 0.13 µg/mL (≈ 0.204 µM); MIC [21]: 4 µg/mL (≈ 6.27 µM); MIC [22]: 0.031 µg/mL (≈ 0.0486 µM); MIC [23]: 1 µg/mL (≈ 1.57 µM); MIC [24]: 0.5 µg/mL (≈ 0.784 µM); MIC [25]: > 128 µg/mL
